Assay results published in patent US10513496B2, “Aminobenzamide derivatives as useful agents for controlling animal parasites” (BAYER INTELLECTUAL PROPERTY GMBH, priority 2007, dated 2019).

How the values were obtained:
Format in all cases: in vivo
[1] = tested on: Lucilia cuprina larvae; experiment: Lucillia cuprina test; settings: application rate 100 ppm, larvae on minced horse meat, 100% = all larvae killed
Protocol: (§1) Solvent: Dimethyl Sulfoxide
(§2) To produce a suitable preparation of active compound, 10 mg of active compound are dissolved in 0.5 ml solvent, and the concentrate is diluted with water to the desired concentration.
Approximately 20-30 (Lucilia cuprina larvae) are transferred into a test tube containing 1 cm^3 of minced horse meat and 0.5 ml aqueous dilution of test compound.
After the specified period of time, mortality in % is determined. 100% means that all the larvae have been killed; 0% means that none of the larvae have been killed.

[2] = tested on: Ctenocephalides felis; experiment: Ctenocephalides felis test (CTECFE); settings: application rate 100 ppm in cattle blood, adult unfed fleas, 100% = all fleas killed
Protocol: Ctenocephalides felis—Test (CTECFE)
as §1
To produce a suitable preparation of active compound, 10 mg of active compound are dissolved in 0.5 ml solvent, and the concentrate is diluted with cattle blood to the desired concentration.
Approximately 10 to 15 adult unfed (Ctenocepahlides felis) are placed in flea chambers. The blood chamber, sealed with parafilm on the bottom are filled with cattle blood supplied with compound solution and placed on top of the flea chamber, so that the fleas are able to suck the blood. The blood chamber is heated to 37° C. whereas the flea chamber is kept at room temperature.
After the specified period of time, mortality in % is determined. 100% means that all the fleas have been killed; 0% means that none of the fleas have been killed.

[3] = tested on: Boophilus microplus; experiment: Boophilus microplus test (injection); settings: Rhipicephalus microplus; application rate 20 μg/animal; injected into abdomen of adult engorged female ticks; 100% = all eggs infertile
Protocol: Boophilus microplus—Test (Injection)
as §1, §2
Five adult engorged female ticks (Boophilus microplus) are injected with compound solution into the abdomen. Ticks are transferred into replica plates and incubated in a climate chamber for a period of time. Egg deposition of fertile eggs is monitored.
After the specified period of time, mortality in % is determined. 100% means that all eggs are infertile; 0% means that all eggs are fertile.

[4] = tested on: Musca domestica; experiment: Musca domestica test; settings: application rate 100 ppm, adults, sponge soaked with sugar and compound solution, 100% = all flies killed
Protocol: as §1, §2
Prior to the assay, a piece or kitchen sponge is soaked with a mixture of sugar and compound solution and placed into a container. 10 adults (Musca domestica) are placed into the container and closed with a perforated lid.
After the specified period of time, mortality in % is determined. 100% means that all the flies have been killed; 0% means that none of the flies have been killed.

O=C(Nc1cccc(C(=O)Nc2c(I)cc(C(F)(F)F)cc2C(F)(F)F)c1)c1ccc(Cl)cc1 [Example I-1-206]
mortality at 100 ppm [1]: ≥ 80%
mortality at 100 ppm [2]: ≥ 80%

O=C(Nc1cccc(C(=O)Nc2c(I)cc(C(F)(F)F)cc2C(F)(F)F)c1)c1ccc(Cl)cc1 [Example I-1-211]
mortality at 0.02 mg [3]: 80%

CCc1cc(SC(F)(F)C(F)(F)F)cc(C)c1NC(=O)c1cccc(NC(=O)c2ccccc2F)c1 [Example I-1-187]
mortality at 100 ppm [1]: ≥ 80%
mortality at 100 ppm [2]: ≥ 80%
mortality at 0.02 mg [3]: 80%

O=C(Nc1c(I)cc(C(F)(F)F)cc1I)c1cccc(NC(=O)c2cccnc2F)c1 [Example I-1-208]
mortality at 100 ppm [1]: ≥ 80%
mortality at 100 ppm [2]: ≥ 80%
mortality at 100 ppm [4]: ≥ 80%
mortality at 0.02 mg [3]: 80%

O=C(Nc1cccc(C(=O)Nc2c(I)cc(C(F)(F)F)cc2C(F)(F)F)c1)c1ccccc1 [Example I-1-204]
mortality at 100 ppm [1]: ≥ 80%
mortality at 100 ppm [2]: ≥ 80%
mortality at 0.02 mg [3]: 80%

O=C(Nc1cccc(C(=O)Nc2c(Br)cc(Br)cc2C(F)(F)F)c1)c1ccc(Cl)cc1 [Example I-1-212]
mortality at 100 ppm [2]: ≥ 80%
mortality at 0.02 mg [3]: 80%

O=C(Nc1c(I)cc(C(F)(F)F)cc1I)c1cccc(NC(=O)c2ccccc2F)c1 [Example I-1-207]
mortality at 100 ppm [1]: ≥ 80%
mortality at 100 ppm [2]: ≥ 80%
mortality at 0.02 mg [3]: 80%

O=C(Nc1c(Br)cc(S(F)(F)(F)(F)F)cc1Br)c1cccc(NC(=O)c2ccccc2F)c1 [Example I-1-213]
mortality at 100 ppm [1]: ≥ 80%
mortality at 100 ppm [2]: ≥ 80%
mortality at 0.02 mg [3]: 80%

O=C(Nc1c(I)cc(C(F)(F)F)cc1C(F)(F)F)c1cccc(NC(=O)c2ccccc2F)c1 [Example I-1-203]
mortality at 100 ppm [2]: ≥ 80%
mortality at 0.02 mg [3]: 80%

CCc1cc(SC(F)(F)F)cc(C)c1NC(=O)c1cccc(NC(=O)c2ccccc2F)c1 [Example I-1-186]
mortality at 100 ppm [1]: ≥ 80%
mortality at 100 ppm [2]: ≥ 80%
mortality at 0.02 mg [3]: 80%

O=C(Nc1cccc(C(=O)Nc2c(Br)cc(Br)cc2Br)c1)c1ccccc1 [Example I-1-205]
mortality at 0.02 mg [3]: 80%
